In assay [1] the target is Phosphatidylinositol 4-kinase type 2-beta (Homo sapiens) (UniProt Q8TCG2). In words: Selectivity interaction (ProQinase) EUB0000171b PI4K2B.
The target of assay [2] is T1, Testis-specific serine/threonine-protein kinase 1 (Homo sapiens) (UniProt Q9BXA7).
T1 sequence (whole entry): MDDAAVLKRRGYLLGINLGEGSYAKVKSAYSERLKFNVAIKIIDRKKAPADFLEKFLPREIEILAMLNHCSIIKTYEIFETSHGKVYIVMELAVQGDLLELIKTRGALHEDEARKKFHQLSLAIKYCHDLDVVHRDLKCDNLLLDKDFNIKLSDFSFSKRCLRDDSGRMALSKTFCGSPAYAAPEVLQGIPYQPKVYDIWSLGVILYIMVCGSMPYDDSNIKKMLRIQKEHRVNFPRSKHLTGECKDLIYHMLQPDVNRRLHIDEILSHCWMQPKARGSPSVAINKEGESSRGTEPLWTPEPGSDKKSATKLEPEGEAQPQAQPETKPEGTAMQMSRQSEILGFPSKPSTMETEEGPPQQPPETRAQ
In words: Selectivity interaction (KinomeScan (DiscoverX)) EUB0001079a TSSK1B. Particulars: at 1 µM.

For assay [3], the system named is Epidermal growth factor receptor (Homo sapiens), P00533 [UNDEFINED MUTATION]. In words: Selectivity interaction (KinomeScan (DiscoverX)) EUB0001049a EGFR. Particulars: at 1 µM.
The target in assay [4] is Ribosomal protein S6 kinase alpha-5 (Homo sapiens) (UniProt O75582). In words: Selectivity interaction (KinomeScan (DiscoverX)) EUB0000695a RPS6KA5. Particulars: at 100 nM.
Assay [5] concerns the target SRSF protein kinase 2 (Homo sapiens) (UniProt P78362). In words: Selectivity interaction (KinomeScan (DiscoverX)) EUB0000666a SRPK2. To be noted: at 10 µM.
Assay [6] addresses Phosphatidylinositol 4,5-bisphosphate 3-kinase catalytic subunit gamma isoform (Homo sapiens) (UniProt P48736). In words: Selectivity interaction (Adapta Assay) EUB0001632a PIK3CG. To be noted: at 10 µM.
In assay [7] the target is T2, Hormonally up-regulated neu tumor-associated kinase (Homo sapiens) (UniProt P57058).
T2 sequence (whole entry): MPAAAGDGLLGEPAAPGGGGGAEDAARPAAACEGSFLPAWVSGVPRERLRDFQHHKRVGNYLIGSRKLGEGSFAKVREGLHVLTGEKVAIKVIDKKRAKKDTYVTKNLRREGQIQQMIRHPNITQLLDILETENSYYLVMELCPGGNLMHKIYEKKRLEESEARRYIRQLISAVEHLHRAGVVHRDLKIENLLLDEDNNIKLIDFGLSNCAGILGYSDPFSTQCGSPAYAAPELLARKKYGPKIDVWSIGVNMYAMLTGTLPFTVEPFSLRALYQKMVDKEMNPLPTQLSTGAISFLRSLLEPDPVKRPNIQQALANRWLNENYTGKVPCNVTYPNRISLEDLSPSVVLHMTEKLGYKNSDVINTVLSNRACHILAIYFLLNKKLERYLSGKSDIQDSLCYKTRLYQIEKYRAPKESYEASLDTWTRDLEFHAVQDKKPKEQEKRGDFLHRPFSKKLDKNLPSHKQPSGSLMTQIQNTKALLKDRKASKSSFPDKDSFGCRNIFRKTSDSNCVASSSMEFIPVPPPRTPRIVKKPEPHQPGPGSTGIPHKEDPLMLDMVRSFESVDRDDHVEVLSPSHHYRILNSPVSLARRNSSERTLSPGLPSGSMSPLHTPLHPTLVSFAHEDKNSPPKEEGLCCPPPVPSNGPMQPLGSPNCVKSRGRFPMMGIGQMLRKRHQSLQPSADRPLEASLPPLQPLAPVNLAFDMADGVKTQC
In words: Selectivity interaction (KinomeScan (DiscoverX)) EUB0000607a HUNK. Particulars: at 10 µM.

The target of assay [8] is Cyclin-dependent kinase 5 (Homo sapiens, UniProt Q00535). In words: Selectivity interaction (ActivX KiNativ screen (kinase selectivity in THP-1 cell lysates)) EUB0000639a CDK5. Type of assay: subcellular. To be noted: lysate.
Assay [9] deals with Mitogen-activated protein kinase kinase kinase kinase 5 (Homo sapiens) (UniProt Q9Y4K4). Nature of the assay: Selectivity interaction (KinomeScan (DiscoverX)) EUB0001619a MAP4K5. Particulars: at 1 µM.
Assay [10] concerns the target Ribosomal protein S6 kinase alpha-1 (Homo sapiens, UniProt Q15418). In words: Selectivity interaction (KinomeScan (DiscoverX)) EUB0000618a RPS6KA1. Particulars: at 10 µM.
Assay [11] has as its target G protein-coupled receptor kinase 4 (Homo sapiens) (UniProt P32298). In words: Selectivity interaction (KinomeScan (DiscoverX)) EUB0000618a GRK4. Particulars: at 10 µM.

SMILES strings stand for the structures.

Sequence of Cyclin-dependent kinase 5 (Q00535 whole entry, looked up): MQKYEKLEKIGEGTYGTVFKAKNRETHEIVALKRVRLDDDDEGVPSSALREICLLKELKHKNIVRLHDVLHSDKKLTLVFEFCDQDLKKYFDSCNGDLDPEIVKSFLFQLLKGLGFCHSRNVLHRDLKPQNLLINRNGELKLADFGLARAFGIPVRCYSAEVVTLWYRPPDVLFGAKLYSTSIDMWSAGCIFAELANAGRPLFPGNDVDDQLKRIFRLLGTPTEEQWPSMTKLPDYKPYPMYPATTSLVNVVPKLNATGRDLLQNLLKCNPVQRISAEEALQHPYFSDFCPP
Sequence of Phosphatidylinositol 4-kinase type 2-beta (Homo sapiens) (Q8TCG2 whole entry): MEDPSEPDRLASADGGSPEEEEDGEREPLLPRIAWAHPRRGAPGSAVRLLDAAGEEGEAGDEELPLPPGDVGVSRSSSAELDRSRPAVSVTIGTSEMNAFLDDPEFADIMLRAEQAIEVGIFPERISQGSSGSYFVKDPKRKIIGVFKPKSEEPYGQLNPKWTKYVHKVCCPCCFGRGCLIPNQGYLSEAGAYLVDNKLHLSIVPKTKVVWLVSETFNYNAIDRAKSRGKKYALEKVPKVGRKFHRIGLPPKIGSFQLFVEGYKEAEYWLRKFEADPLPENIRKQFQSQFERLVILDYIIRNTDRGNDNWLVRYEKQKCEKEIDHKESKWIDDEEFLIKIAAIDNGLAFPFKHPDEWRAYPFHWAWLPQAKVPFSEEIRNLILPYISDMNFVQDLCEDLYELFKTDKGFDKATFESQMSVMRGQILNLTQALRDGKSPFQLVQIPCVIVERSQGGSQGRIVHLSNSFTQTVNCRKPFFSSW
Sequence of G protein-coupled receptor kinase 4 (Homo sapiens) (P32298 whole entry, looked up): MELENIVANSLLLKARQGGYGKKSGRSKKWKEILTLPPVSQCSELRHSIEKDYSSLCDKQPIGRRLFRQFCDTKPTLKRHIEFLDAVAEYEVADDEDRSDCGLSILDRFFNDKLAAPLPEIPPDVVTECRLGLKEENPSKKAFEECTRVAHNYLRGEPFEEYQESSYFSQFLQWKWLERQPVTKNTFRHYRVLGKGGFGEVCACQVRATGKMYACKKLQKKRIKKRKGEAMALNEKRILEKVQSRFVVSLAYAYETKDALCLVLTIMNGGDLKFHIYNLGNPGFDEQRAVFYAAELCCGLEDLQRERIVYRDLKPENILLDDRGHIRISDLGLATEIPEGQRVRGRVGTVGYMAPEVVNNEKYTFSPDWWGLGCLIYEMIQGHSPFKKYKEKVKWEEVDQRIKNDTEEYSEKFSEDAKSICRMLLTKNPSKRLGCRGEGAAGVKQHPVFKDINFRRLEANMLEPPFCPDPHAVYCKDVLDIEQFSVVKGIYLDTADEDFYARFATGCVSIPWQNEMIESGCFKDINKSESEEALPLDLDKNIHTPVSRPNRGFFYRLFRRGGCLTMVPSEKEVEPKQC
Sequence of Epidermal growth factor receptor (Homo sapiens), P00533 [UNDEFINED MUTATION] (P00533 whole entry, looked up, change not shown): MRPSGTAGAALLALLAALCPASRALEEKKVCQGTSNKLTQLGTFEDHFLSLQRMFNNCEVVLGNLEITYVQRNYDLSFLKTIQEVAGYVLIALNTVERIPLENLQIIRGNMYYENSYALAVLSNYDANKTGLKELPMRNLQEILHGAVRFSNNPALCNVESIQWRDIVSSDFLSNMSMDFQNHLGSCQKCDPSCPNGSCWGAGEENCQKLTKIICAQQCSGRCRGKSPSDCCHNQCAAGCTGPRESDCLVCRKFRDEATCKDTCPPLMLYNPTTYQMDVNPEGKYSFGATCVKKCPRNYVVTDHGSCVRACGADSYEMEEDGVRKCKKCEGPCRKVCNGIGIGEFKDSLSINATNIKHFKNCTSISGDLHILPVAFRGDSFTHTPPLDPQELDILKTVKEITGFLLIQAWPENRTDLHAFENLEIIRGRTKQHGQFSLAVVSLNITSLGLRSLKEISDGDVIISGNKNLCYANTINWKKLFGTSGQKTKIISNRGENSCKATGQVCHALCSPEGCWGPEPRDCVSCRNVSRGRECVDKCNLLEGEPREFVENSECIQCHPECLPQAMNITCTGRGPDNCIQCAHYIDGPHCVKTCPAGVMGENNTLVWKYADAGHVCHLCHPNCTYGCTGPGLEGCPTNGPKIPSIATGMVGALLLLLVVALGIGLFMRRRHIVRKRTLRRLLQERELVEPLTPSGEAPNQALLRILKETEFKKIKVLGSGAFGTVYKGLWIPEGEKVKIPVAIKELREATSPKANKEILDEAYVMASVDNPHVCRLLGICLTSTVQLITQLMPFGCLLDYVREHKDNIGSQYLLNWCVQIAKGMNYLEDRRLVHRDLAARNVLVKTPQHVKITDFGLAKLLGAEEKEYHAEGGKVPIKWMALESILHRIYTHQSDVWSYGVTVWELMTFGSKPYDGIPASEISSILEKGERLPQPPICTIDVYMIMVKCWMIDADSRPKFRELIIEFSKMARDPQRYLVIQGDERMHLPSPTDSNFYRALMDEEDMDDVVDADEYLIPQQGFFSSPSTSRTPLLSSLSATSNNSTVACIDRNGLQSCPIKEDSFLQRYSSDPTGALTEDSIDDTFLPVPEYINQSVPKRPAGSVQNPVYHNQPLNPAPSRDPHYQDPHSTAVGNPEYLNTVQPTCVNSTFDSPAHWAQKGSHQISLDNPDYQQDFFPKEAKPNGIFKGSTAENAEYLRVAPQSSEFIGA
Sequence of Ribosomal protein S6 kinase alpha-1 (Q15418 whole entry): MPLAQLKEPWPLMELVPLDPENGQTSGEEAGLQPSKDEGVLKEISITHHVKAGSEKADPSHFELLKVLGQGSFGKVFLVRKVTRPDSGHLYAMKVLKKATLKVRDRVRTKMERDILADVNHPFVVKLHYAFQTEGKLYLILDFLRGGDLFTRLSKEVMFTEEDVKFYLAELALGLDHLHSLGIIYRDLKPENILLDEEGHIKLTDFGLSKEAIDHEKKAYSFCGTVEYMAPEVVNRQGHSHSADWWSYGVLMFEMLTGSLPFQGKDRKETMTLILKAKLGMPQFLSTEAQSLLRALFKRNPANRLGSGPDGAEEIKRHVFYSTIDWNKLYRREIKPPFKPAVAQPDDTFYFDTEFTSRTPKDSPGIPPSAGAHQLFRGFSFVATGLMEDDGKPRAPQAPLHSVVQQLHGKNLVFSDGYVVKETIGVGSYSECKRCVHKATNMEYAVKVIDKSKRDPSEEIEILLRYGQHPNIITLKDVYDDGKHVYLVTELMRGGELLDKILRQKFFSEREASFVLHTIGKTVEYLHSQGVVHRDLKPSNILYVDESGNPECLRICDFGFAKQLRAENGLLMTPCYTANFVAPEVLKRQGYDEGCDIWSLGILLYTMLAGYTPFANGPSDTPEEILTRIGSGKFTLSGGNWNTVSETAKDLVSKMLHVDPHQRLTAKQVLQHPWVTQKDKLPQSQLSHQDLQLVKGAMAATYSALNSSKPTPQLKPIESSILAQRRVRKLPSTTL
Sequence of Phosphatidylinositol 4,5-bisphosphate 3-kinase catalytic subunit gamma isoform (Homo sapiens) (P48736 whole entry, looked up, canonical isoform): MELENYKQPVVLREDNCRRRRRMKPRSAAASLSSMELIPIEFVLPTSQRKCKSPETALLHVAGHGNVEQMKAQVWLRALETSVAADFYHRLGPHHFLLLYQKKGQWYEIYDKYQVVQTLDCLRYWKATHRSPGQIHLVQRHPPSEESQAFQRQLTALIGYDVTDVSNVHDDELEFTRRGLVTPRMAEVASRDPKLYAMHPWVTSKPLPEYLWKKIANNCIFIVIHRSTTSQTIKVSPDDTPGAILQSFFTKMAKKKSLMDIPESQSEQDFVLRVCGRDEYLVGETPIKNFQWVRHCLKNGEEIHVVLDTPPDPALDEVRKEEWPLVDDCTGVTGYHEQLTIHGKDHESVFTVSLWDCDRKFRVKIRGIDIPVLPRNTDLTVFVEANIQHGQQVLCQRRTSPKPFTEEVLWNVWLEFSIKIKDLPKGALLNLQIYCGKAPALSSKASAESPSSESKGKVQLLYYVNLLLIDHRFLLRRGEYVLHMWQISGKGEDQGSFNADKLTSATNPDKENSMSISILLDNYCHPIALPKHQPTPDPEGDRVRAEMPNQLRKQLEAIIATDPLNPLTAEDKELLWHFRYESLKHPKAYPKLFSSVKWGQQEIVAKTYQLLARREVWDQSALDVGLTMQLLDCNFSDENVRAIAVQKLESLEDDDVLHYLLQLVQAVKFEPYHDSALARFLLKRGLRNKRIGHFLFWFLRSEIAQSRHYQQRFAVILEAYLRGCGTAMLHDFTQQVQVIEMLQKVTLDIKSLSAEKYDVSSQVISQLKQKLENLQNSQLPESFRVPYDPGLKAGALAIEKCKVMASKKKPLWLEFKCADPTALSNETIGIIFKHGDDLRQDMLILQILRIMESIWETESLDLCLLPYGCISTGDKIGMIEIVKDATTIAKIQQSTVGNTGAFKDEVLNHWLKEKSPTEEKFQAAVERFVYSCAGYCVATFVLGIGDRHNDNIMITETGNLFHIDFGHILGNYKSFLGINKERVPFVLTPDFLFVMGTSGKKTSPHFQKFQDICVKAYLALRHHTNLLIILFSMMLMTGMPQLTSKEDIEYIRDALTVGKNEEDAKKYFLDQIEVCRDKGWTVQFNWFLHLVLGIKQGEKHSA

For the compound `C=CC(=O)Nc1cccc(C(=O)Nc2ccc(Nc3cc(-c4[nH]c(SC)nc4C)ccn3)cc2)c1`, the % of control turned out to be 128% in [1] (at 1 µM) and 120% in assay [1] (at 5 µM).

The compound `Nc1cnc(N2CCc3cc(S(=O)(=O)Nc4c(F)cc(Cl)cc4F)cc(N4CCCC4=O)c32)nc1` [TP-020n] displayed a % of control in assay [2] of 100%. As for `COc1cc(Nc2nc(C)cc(-c3cnn4nc(OC)ccc34)n2)cc(C(F)(F)F)c1`, in assay [3], the % of control is 77%. Take `Cc1cc(F)c(C(=O)Nc2cccc(-c3nncn3C(C)C)n2)cc1-n1cnc(C2CC2)c1`: the % of control in [4] was 100%.

`O=C(NOC[C@H](O)CO)c1ccc(F)c(F)c1Nc1ccc(I)cc1F` showed a % of control in [5] of 100%. As to `Cn1cc(-n2cnc3c(NCc4nc5cc(Cl)c(Cl)cc5[nH]4)nc(N4CCOCC4)nc32)cn1`, the % of inhibition in [6] was 29.5%. In assay [7], `CNC(=O)Nc1ccc(-c2nc(N3CC4CCC(C3)O4)c3cnn(C4CCC5(CC4)OCCO5)c3n2)cc1` returned a % of control of 100%. Consider `CC[C@@H]1[C@H](F)C(=O)N[C@@H]1COc1nccc2cc(C(N)=O)c(OC)cc12` [ZIMLOVISERTIB], for which the % of inhibition in [8] (at 0.01 µM) was 3.6%; in [8] (at 0.04 µM) it was 3.9%; in assay [8] (at 0.2 µM), -0.2%; in assay [8] (at 1 µM), 2.7%; in assay [8] (at 5 µM) it was -6.9%. In the case of `N#Cc1cccc(-c2c[nH]c3ncnc(N4CCOCC4)c23)c1`, the % of control in [9] came to 53%. As to `O[C@H]1CC[C@H](Nc2ncc3nc(Nc4c(F)cc(F)cc4F)n([C@H]4CCOC4)c3n2)CC1`, the figures for the % of control in assay [10] and in [11] were 70% and 98%, respectively.

The values are drawn from ChEMBL document CHEMBL5465560, “Selectivity Literature for EUbOPEN Chemogenomic Library” (2024).
